Target: T1, TANK-2 enzyme (Homo sapiens, UniProt Q9H2K2)
T1 construct: made in house
T1 sequence (Q9H2K2 1-1166): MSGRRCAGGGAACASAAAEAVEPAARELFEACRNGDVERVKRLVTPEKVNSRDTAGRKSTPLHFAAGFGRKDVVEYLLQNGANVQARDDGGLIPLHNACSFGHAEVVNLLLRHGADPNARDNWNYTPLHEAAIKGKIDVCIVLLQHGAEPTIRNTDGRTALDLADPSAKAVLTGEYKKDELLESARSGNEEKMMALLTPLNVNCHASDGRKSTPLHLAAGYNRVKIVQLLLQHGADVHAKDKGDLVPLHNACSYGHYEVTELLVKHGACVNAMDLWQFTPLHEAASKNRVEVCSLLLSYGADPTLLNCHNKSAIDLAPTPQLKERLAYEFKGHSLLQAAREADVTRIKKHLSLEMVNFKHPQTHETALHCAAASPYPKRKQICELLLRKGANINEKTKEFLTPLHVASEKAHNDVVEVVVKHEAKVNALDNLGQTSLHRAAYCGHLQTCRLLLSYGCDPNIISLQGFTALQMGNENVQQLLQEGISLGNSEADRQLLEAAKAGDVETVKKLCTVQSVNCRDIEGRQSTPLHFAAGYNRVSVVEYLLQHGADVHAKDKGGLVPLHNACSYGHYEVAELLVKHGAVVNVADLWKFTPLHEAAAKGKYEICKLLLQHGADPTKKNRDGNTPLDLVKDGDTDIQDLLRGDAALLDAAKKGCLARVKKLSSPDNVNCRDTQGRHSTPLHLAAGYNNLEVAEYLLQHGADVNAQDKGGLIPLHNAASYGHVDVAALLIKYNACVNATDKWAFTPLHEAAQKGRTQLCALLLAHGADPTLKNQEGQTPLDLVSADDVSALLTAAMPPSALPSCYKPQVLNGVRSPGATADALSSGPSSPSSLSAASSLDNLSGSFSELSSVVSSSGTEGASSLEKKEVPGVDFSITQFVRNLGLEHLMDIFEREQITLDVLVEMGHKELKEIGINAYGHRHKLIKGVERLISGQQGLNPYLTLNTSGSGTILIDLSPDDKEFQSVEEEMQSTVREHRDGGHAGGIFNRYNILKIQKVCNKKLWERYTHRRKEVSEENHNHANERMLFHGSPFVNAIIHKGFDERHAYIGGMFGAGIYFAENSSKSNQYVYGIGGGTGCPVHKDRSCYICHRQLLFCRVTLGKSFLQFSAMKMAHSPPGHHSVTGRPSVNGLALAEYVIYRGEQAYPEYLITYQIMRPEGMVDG
Test: In vitro Scintillation Proximity Assay (SPA) for TANK-2 inhibitory activity
Assay type: biochemical
Settings: not given
Outline: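 TANK-2 (8 μg/ml final) auto-poly(ADP-ribosyl)ation with [3H]-NAD+/NAD donor was run in Ni flash plates in Tris/HCl pH 7.4 buffer with DTT and MgCl2, 120 min at room temperature, then stopped with excess NAD and scintillation-counted. Blank-corrected cpm was expressed as % of enzyme control, and IC50 was linearly interpolated and reported as pIC50.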

| in vitro SPA assay TANK-2 pIC50 | Structure (SMILES) |
| --- | --- |
| 7.1 | CCc1cc2ccc(C(C)(C#N)Cc3cc(Cl)cc4c3OCOC4)cc2[nH]c1=O (stereo not shown) [Compound 92] |

Same assay, conditions: read-out: in vitro SPA assay TANK-2 pIC50 (converted)

| Structure (SMILES) | IC50 [nM] |
| --- | --- |
| Cc1cc2ccc(C(C)(C#N)Cc3noc(-c4cccc(C(F)(F)F)c4)n3)cc2[nH]c1=O (stereo not shown) [Compound 70] | 200 |
| Cc1cc2ccc(C(C)(C#N)Cc3cc4ccccc4s3)cc2[nH]c1=O (stereo not shown) [Compound 71] | 251 |
| Cc1cc2ccc(C(C)(C#N)Cc3ccc(Cl)s3)cc2[nH]c1=O (stereo not shown) [Compound 72] | 251 |
| Cc1cc2ccc(C(C)(C#N)Cc3ccc(C(F)(F)F)o3)cc2[nH]c1=O (stereo not shown) [Compound 73] | 251 |
| Cc1cc2ccc(C(C)(C#N)Cc3cccc4cccnc34)cc2[nH]c1=O (stereo not shown) [Compound 74] | 126 |
| Cc1cc2ccc(C(C)(C#N)Cc3nc4ccccc4s3)cc2[nH]c1=O (stereo not shown) [Compound 75] | 251 |
| Cc1cc2ccc(C(C)(C#N)Cc3ccccc3)cc2[nH]c1=O (stereo not shown) [Compound 76] | 31.6 |
| CCc1cc2ccc(C(C)(C#N)Cc3nc4ccccc4o3)cc2[nH]c1=O (stereo not shown) [Compound 85] | 100 |
| CCc1cc2ccc(C(C)(C#N)Cc3csc(C)n3)cc2[nH]c1=O (stereo not shown) [Compound 86] | 158 |
| CCc1cc2ccc(C(C)(C#N)Cc3ccc4nccnc4c3)cc2[nH]c1=O (stereo not shown) [Compound 87] | 50.1 |
| CCc1cc2ccc(C(C)(C#N)Cc3c(C)c(C)cc(C)c3C)cc2[nH]c1=O (stereo not shown) [Compound 88] | 200 |
| CCc1cc2ccc(C(C)(C#N)Cc3c(C)c(C)c(C)c(C)c3C)cc2[nH]c1=O (stereo not shown) [Compound 89] | 316 |
| CCc1cc2ccc(C(C)(C#N)Cc3cc4c(cc3Cl)OCO4)cc2[nH]c1=O (stereo not shown) [Compound 91] | 63.1 |
| CCc1cc2ccc(C(C)(C#N)Cc3nncn3C)cc2[nH]c1=O (stereo not shown) [Compound 93] | 398 |
| CCc1cc2ccc(C(C)(C#N)Cc3nn(C)c4ccccc34)cc2[nH]c1=O (stereo not shown) [Compound 95] | 79.4 |
| CCc1cc2ccc(C(C)(C#N)Cc3cn4ccccc4n3)cc2[nH]c1=O (stereo not shown) [Compound 96] | 100 |
| CCc1cc2ccc(C(C)(C#N)Cc3cccnc3)cc2[nH]c1=O (stereo not shown) [Compound 97] | 63.1 |
| CCc1cc2ccc(C(C)(C#N)Cc3ccncc3)cc2[nH]c1=O (stereo not shown) [Compound 98] | 31.6 |
| CCc1cc2ccc(C(C)(C#N)Cc3ccccc3OC(F)(F)F)cc2[nH]c1=O (stereo not shown) [Compound 102] | 200 |
| CCc1cc2ccc(C(C)(C#N)Cc3ccccc3C(F)(F)F)cc2[nH]c1=O (stereo not shown) [Compound 103] | 79.4 |
| Cc1cc2ccc(C(C)(C#N)Cc3cc4ccccc4[nH]3)cc2[nH]c1=O (stereo not shown) [Compound 234] | 794 |
| CCc1cc2ccc(C(C)(C#N)CCOc3ccccc3C#N)cc2[nH]c1=O (stereo not shown) [Compound 276] | 79.4 |
| CCc1cc2ccc(C(C)(C#N)CCOc3cc(Cl)c(Cl)cc3Cl)cc2[nH]c1=O (stereo not shown) [Compound 277] | 2000 |
| CCc1cc2ccc(C(C)(C#N)CCOc3ccccc3F)cc2[nH]c1=O (stereo not shown) [Compound 278] | 316 |
| CCc1cc2ccc(C(C)(C#N)CCOc3ccc4c(c3)OCO4)cc2[nH]c1=O (stereo not shown) [Compound 279] | 398 |

The next lines start with the values.

| IC50 [nM] | Structure (SMILES) |
| --- | --- |
| 100 | CCc1cc2ccc(C(C)(C#N)Cc3ccc(OC)c(C#N)c3)cc2[nH]c1=O (stereo not shown) [Compound 77] |
| 158 | CCc1cc2ccc(C(C)(C#N)Cc3cc(C)ccc3C)cc2[nH]c1=O (stereo not shown) [Compound 78] |
| 79.4 | CCc1cc2ccc(C(C)(C#N)Cc3ccc(F)c(C)c3)cc2[nH]c1=O (stereo not shown) [Compound 79] |
| 126 | CCc1cc2ccc(C(C)(C#N)Cc3cc(Cl)ccc3OC)cc2[nH]c1=O (stereo not shown) [Compound 80] |
| 100 | CCc1cc2ccc(C(C)(C#N)Cc3cccc(Br)c3C)cc2[nH]c1=O (stereo not shown) [Compound 81] |
| 398 | CCc1cc2ccc(C(C)(C#N)Cc3ccc(Cl)c(C(F)(F)F)c3)cc2[nH]c1=O (stereo not shown) [Compound 82] |
| 79.4 | CCc1cc2ccc(C(C)(C#N)Cc3ccc(C)c(F)c3F)cc2[nH]c1=O (stereo not shown) [Compound 83] |
| 126 | CCc1cc2ccc(C(C)(C#N)Cc3c(C)cccc3C)cc2[nH]c1=O (stereo not shown) [Compound 84] |
| 79.4 | CCc1cc2ccc(C(C)(C#N)Cc3cc(Cl)cc4c3OCOC4)cc2[nH]c1=O (stereo not shown) [Compound 90] |
| 251 | CCc1cc2ccc(C(C)(C#N)Cc3cccc4nnn(C)c34)cc2[nH]c1=O (stereo not shown) [Compound 94] |
| 79.4 | CCc1cc2ccc(C(C)(C#N)Cc3cc(Cl)ccc3Cl)cc2[nH]c1=O (stereo not shown) [Compound 99] |
| 39.8 | CCc1cc2ccc(C(C)(C#N)Cc3ccccc3C#N)cc2[nH]c1=O (stereo not shown) [Compound 101] |
| 251 | CCc1cc2ccc(C(C)(C#N)Cc3ccc(F)c(C#N)c3)cc2[nH]c1=O (stereo not shown) [Compound 267] |
| 501 | CCc1cc2ccc(C(C)(C#N)Cc3cc(OC)cc(OC)c3)cc2[nH]c1=O (stereo not shown) [Compound 332] |

From patent US8778966B2, “Quinolinone derivatives as PARP and tank inhibitors” (Janssen Pharmaceutica, NV, priority 2007, dated 2014)
